How the values were obtained:
[1] = biological target: T1, Discoidin domain-containing receptor 2 (Homo sapiens) (UniProt Q16832); assay: Inhibition of DDR2 (unknown origin) at 10 uM after 120 mins P33 radiolabeled kinase activity assay
T1 sequence (whole entry): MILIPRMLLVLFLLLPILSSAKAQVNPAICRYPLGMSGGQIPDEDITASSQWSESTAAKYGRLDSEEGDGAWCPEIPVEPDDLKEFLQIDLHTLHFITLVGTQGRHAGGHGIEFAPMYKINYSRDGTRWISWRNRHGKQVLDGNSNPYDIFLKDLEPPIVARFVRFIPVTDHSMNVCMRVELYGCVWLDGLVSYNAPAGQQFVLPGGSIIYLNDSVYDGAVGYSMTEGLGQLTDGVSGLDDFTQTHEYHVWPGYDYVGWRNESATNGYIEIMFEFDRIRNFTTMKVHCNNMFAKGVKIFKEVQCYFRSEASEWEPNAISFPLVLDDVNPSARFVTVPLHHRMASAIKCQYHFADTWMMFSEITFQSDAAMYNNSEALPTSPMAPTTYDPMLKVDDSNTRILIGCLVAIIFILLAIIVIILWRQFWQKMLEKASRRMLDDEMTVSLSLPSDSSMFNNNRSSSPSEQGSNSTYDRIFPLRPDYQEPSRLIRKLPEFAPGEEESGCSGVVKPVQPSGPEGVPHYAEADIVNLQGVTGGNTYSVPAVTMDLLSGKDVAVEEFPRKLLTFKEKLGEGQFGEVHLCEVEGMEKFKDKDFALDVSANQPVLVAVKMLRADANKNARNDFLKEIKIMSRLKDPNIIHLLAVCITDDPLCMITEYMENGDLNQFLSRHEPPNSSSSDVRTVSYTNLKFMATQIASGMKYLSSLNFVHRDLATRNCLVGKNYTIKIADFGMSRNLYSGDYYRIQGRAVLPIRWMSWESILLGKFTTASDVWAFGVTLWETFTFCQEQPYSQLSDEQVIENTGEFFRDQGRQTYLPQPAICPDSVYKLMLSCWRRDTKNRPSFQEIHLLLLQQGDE

[2] = biological target: G protein-coupled receptor kinase 4 (Homo sapiens) (UniProt P32298); assay: Inhibition of GRK4 (unknown origin) at 10 uM after 120 mins P33 radiolabeled kinase activity assay
G protein-coupled receptor kinase 4 (Homo sapiens), sequence (P32298 whole entry, looked up): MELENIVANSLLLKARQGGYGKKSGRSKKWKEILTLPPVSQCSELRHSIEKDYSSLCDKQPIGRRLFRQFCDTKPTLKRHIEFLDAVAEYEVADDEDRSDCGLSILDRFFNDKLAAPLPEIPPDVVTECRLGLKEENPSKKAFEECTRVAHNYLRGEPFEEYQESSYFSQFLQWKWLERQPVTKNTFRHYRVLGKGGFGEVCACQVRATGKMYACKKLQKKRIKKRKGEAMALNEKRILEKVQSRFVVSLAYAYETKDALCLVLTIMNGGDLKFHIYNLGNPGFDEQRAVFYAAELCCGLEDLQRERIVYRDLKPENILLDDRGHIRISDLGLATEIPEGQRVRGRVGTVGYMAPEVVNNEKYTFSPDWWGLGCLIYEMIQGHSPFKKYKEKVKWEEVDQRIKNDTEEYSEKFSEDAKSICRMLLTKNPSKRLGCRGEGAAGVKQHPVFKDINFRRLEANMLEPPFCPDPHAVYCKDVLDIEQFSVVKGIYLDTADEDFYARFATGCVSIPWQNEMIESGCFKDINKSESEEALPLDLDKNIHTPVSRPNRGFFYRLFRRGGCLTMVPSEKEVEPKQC

[3] = biological target: T2, Tyrosine-protein kinase Mer (Homo sapiens) (UniProt Q12866); assay: Inhibition of c-MER (unknown origin) at 10 uM after 120 mins P33 radiolabeled kinase activity assay
T2 sequence (whole entry): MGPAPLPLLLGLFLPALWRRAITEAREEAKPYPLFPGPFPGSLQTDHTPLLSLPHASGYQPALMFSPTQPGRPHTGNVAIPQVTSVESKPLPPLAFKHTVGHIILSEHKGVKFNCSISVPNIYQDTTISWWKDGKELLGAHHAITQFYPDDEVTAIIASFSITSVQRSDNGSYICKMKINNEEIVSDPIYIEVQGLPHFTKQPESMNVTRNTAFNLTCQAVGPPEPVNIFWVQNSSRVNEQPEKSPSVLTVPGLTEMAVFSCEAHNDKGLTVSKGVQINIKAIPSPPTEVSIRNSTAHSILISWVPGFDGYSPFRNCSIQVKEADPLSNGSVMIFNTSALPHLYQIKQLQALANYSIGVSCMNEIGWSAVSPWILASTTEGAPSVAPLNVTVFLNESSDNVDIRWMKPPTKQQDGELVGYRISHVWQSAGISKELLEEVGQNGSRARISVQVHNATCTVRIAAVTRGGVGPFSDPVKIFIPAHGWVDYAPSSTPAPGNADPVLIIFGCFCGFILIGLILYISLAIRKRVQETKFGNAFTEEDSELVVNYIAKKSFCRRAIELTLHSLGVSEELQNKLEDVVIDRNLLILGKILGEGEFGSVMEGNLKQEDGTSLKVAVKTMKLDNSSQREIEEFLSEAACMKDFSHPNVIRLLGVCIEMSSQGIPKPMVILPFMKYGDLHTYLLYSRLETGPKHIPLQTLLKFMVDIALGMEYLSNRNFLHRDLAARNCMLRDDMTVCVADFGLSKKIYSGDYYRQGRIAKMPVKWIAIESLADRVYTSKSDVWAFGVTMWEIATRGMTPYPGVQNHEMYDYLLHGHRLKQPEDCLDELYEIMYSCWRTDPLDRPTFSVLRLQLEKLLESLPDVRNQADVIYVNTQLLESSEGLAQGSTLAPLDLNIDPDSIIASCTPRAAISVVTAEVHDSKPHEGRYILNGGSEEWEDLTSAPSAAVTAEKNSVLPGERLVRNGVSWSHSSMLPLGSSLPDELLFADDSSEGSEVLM

[4] = biological target: Tyrosine-protein kinase Lyn (Homo sapiens) (UniProt P07948); assay: Inhibition of LYN B (unknown origin) at 10 uM after 120 mins P33 radiolabeled kinase activity assay
Tyrosine-protein kinase Lyn (Homo sapiens), sequence (P07948 2-512 limits assumed): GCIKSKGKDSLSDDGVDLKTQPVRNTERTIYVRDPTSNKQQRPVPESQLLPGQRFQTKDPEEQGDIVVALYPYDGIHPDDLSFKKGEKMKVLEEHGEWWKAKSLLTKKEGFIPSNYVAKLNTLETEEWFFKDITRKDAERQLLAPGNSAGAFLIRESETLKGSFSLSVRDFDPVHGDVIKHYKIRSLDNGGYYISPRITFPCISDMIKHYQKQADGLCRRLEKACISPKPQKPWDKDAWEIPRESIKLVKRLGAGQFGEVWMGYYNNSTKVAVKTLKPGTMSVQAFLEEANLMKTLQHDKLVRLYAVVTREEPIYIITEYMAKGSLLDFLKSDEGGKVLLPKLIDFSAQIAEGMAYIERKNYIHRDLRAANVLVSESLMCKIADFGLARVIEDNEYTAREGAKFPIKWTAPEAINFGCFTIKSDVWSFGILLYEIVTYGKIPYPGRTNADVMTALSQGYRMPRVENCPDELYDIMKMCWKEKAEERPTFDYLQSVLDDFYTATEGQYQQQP

[5] = biological target: T3, Mitogen-activated protein kinase 12 (Homo sapiens) (UniProt P53778); assay: Inhibition of P38gamma (unknown origin) at 10 uM after 120 mins P33 radiolabeled kinase activity assay
T3 sequence (whole entry): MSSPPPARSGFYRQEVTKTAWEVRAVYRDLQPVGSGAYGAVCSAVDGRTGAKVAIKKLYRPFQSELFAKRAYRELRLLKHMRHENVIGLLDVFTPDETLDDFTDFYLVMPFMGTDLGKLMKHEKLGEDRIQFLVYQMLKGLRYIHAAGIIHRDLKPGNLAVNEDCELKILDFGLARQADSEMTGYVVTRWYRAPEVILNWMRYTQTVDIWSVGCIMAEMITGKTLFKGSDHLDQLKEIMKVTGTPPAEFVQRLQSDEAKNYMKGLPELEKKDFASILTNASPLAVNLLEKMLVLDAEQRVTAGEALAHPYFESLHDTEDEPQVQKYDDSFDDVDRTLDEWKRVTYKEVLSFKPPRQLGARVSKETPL

[6] = biological target: Casein kinase I isoform gamma-2 (Homo sapiens) (UniProt P78368); assay: Inhibition of CK1gamma2 (unknown origin) at 10 uM after 120 mins P33 radiolabeled kinase activity assay
Casein kinase I isoform gamma-2 (Homo sapiens), sequence (P78368 whole entry, looked up, canonical isoform): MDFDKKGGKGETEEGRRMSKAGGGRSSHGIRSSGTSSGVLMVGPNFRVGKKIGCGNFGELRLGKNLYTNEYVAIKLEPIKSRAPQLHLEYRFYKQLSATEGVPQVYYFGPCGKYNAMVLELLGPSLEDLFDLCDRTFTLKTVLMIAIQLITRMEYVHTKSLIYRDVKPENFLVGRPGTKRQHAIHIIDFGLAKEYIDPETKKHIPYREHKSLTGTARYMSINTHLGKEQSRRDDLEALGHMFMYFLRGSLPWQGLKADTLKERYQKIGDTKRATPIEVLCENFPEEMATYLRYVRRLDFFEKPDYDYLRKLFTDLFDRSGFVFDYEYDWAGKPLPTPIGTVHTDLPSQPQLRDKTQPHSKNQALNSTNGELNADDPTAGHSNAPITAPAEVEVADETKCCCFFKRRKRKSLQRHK

[7] = biological target: Serine/threonine-protein kinase pim-1 (Homo sapiens) (UniProt P11309); assay: Inhibition of PIM1 (unknown origin) at 10 uM after 120 mins P33 radiolabeled kinase activity assay
Serine/threonine-protein kinase pim-1 (Homo sapiens), sequence (P11309 whole entry, looked up): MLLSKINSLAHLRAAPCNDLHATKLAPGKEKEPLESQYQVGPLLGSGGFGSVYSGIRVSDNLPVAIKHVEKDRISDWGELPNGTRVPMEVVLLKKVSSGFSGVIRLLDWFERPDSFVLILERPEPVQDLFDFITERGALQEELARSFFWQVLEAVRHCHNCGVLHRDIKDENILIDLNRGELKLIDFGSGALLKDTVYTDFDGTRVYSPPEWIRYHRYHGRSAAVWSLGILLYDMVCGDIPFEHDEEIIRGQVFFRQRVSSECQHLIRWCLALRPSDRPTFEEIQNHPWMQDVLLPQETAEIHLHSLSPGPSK

[8] = biological target: NT-3 growth factor receptor (Homo sapiens) (UniProt Q16288); assay: Inhibition of TRKC (unknown origin) at 10 uM after 120 mins P33 radiolabeled kinase activity assay
NT-3 growth factor receptor (Homo sapiens), sequence (Q16288 32-839 limits assumed): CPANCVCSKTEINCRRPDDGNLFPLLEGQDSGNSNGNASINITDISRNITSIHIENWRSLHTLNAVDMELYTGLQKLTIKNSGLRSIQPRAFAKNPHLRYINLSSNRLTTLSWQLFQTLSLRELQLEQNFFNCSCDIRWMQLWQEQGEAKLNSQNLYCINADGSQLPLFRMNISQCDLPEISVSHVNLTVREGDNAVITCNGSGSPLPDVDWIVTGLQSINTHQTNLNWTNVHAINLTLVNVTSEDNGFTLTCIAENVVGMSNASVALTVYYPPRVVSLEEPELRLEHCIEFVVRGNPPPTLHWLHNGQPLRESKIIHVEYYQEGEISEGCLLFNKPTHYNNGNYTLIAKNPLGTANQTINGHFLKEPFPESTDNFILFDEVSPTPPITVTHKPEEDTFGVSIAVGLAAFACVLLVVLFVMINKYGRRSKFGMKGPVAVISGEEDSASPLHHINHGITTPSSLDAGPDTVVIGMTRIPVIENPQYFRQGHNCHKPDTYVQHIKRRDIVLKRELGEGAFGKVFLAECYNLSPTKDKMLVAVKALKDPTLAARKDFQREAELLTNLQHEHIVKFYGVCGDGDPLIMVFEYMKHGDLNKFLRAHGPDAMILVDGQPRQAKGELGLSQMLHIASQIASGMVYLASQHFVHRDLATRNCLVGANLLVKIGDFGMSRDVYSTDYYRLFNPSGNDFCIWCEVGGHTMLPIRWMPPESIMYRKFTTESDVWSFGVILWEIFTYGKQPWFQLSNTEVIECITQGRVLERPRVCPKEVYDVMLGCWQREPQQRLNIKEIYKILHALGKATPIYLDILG

[9] = biological target: Mitogen-activated protein kinase kinase kinase 10 (Homo sapiens) (UniProt Q02779); assay: Inhibition of MLK2 (unknown origin) at 10 uM after 120 mins P33 radiolabeled kinase activity assay
Mitogen-activated protein kinase kinase kinase 10 (Homo sapiens), sequence (Q02779 whole entry, looked up): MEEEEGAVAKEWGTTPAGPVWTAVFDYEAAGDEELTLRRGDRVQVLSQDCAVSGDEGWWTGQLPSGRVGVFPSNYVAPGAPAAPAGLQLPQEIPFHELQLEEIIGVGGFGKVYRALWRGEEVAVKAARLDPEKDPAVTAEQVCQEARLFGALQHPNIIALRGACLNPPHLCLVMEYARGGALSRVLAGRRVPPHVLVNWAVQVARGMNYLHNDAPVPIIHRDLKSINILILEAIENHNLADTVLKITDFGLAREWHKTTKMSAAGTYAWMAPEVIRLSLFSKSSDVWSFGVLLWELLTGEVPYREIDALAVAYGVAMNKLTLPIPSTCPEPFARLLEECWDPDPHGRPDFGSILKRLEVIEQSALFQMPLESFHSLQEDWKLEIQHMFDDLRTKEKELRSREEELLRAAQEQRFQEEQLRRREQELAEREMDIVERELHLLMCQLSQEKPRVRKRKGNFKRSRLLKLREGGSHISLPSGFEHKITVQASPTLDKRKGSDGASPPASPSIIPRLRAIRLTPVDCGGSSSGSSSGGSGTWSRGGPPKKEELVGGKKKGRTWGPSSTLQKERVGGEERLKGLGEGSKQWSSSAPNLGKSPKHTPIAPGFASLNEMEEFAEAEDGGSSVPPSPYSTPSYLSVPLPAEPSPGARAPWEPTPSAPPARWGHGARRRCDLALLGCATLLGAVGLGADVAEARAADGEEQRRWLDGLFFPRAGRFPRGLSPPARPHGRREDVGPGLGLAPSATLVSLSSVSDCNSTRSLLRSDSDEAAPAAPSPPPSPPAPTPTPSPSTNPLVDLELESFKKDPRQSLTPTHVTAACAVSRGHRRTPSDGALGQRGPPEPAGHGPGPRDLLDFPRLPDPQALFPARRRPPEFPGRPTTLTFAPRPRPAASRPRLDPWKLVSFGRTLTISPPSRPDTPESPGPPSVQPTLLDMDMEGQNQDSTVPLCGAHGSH

**Q.** Which results are given for `COCCNC(=O)c1ccc2c(c1)nc(-c1cnc(-c3ccc(Cl)cc3)[nH]1)n2CCOC`?
**A.** inhibition [1]: 28.2%; inhibition [2]: -0.94%; inhibition [3]: 30.8%; inhibition [4]: 41.5%; inhibition [5]: -3.25%; inhibition [6]: 11.4%; inhibition [7]: 7.46%; inhibition [8]: 11.8%; inhibition [9]: 8.79%

**Q.** What does the source list for `CS(=O)(=O)c1cccc(Nc2nccc(-c3sc(N4CCOCC4)nc3-c3cccc(NS(=O)(=O)c4c(F)cccc4F)c3)n2)c1`?
**A.** inhibition [1]: 99%; inhibition [2]: -2.43%; inhibition [3]: 98.2%; inhibition [4]: 100%; inhibition [5]: 7.45%; inhibition [6]: 34.5%; inhibition [7]: 10.6%; inhibition [8]: 84.8%; inhibition [9]: 102%

**Q.** What does the source list for `CC(C)(C)c1cc(NC(=O)Nc2ccc(Oc3ccncc3)cc2)no1`?
**A.** inhibition [1]: 98%; inhibition [2]: -0.89%; inhibition [3]: 77.9%; inhibition [4]: 94.8%; inhibition [5]: 97.4%; inhibition [6]: 20.1%; inhibition [7]: 64.5%; inhibition [8]: 99.7%; inhibition [9]: 39.5%

— ChEMBL document CHEMBL3627608, “Crystal structures of human RIP2 kinase catalytic domain complexed with ATP-competitive inhibitors: Foundations for understanding inhibitor selectivity” (Bioorg Med Chem, 2015)
